Data as given in patent EP4567035A1, “NOVEL COMPOUND AS HYPOXIA-INDUCIBLE FACTOR 1(HIF-1) INHIBITOR OR VASCULAR ENDOTHELIAL GROWTH FACTOR (VEGF) INHIBITOR, AND PHARMACEUTICAL COMPOSITION COMPRISING SAME” (Nextgen Bioscience Co., Ltd., priority 2022, dated 2024).
Like-named read-outs stand apart in the source and are kept apart here.

Experiments:
HIF-1α = target: T1, HIF-1α (Homo sapiens, UniProt Q16665); assay: Analysis of HIF-1α protein expression (Western blot) in ARPE-19 cells under mixed hypoxic condition; assay type: cell-based; settings: concentration range at which HIF-1α expression is reduced by 50% vs untreated control
T1 construct: endogenous in cells; host or cells: ARPE-19 (ATCC CRL-2302)
Method: (§1) ARPE-19 cells (Human retinal pigment epithelial cells, ATCC CRL-2302) were cultured in DMEM/F12 (LM002-08, Welgene) medium containing 10% fetal bovine serum (FBS, 16000-044, Gibco) in an incubator at 37°C with 5% carbon dioxide. When the cells grew sufficiently, they were cultured in experimental culture dishes for protein isolation and medium supernatant acquisition.
(§2) Cells were detached from the culture dish using TrypLE™ Express (Gibco). After centrifugation at 1000 rpm for 3 minutes, the supernatant was removed. The cells were counted and seeded into new culture dishes. Normoxic conditions were maintained by culturing the cells in a 37°C incubator with 5% carbon dioxide, and hypoxic conditions were maintained by culturing the cells in a hypoxic incubator with 1% oxygen, 5% carbon dioxide, and 94% nitrogen gas.
In a disease of macular degeneration, hypoxia is a very important condition, and since the expression of downstream genes is regulated by HIF-1α, a transcription factor that is stabilized in hypoxic conditions, the following experiment was conducted to confirm this.
Mixed hypoxic condition was used for HIF-1α stability experiments, in which hypoxia was induced with 1% oxygen and the stability of HIF-1α was enhanced by treatment with cobalt chloride (CoCl2).
The compounds of each Example were diluted to 0.1 nM, 1 nM, 3 nM, 10 nM, 30 nM, 100 nM, 300 nM, 1 µM, and 10 µM in DMEM/F12 medium without fetal bovine serum, pretreated for 16 hours or 2 hours, and cultured for 1 hour or 24 hours in a mixed hypoxic condition. The cell medium was discarded, and protein lysates were obtained by rapidly treating with protein lysis buffer (RIPA Lysis and Extraction buffer, Thermo Fisher Scientific). LDS (4X Bolt ™ LDS Sample buffer) and reducing agent (10X Bolt ™ Sample Reducing Agent) were added together to the protein lysate, and heated at 70°C for 10 minutes. The lysate was separated by electrophoresis on a 4-12% Bis-Tris gel, transferred to a PVDF membrane, and blocked with 3% BSA (Albumin, Bovine, Fraction V, MPbio). The membrane was incubated overnight at 4°C with a mixture of anti-HIF-1α (ab179483, abcam) and anti-b-actin (MA515739, Invitrogen) antibodies at a ratio of 1:4000. The following day, the membrane was treated with a peroxidase-conjugated secondary antibody for 1 hour at room temperature, and the target protein was expressed using an ECL solution (Clarity ™ Western ECL substrate, Bio-rad) and quantified.
Based on the results of the expression level of HIF-1α in cells treated with compounds diluted from 10 µM to 0.1 nM, the concentration range of the compound at which the expression level of HIF-1α was reduced by 50% or less compared to the untreated control group was derived.

VEGF = assay: Evaluation of VEGF protein secretion level (Human VEGF ELISA) in ARPE-19 cell medium under hypoxic conditions; assay type: cell-based
Method: as §1, §2
The expression of the downstream gene, angiogenesis inducer VEGF, is regulated by HIF-1α, a major transcription factor under hypoxic conditions, and the level of secreted VEGF protein can be quantitatively confirmed through ELISA (Enzyme Linked Immunosorbent Assay, Human VEGF Quantikine ELISA Kit, R&D systems). For this purpose, the following experiment was conducted.
The compounds of each Example were diluted to 0.1 nM, 1 nM, 3 nM, 10 nM, 30 nM, 100 nM, 300 nM, 1 µM and 10 µM in DMEM/F12 medium containing 1% fetal bovine serum, pretreated for 2 hours, and cultured for 24 hours under hypoxic conditions to obtain the cell medium supernatant. The supernatant was centrifuged at 1000 rpm for 3 minutes, and a specific amount was treated with a VEGF ELISA assay kit and the absorbance value was measured at 450 nm to quantitatively confirm the level of VEGF protein (see Table 1 below).
Based on the results of secreted VEGF protein expression levels in cell media treated with compounds diluted at concentrations ranging from 10 µM to 0.1 nM, the concentration range of the compound at which the secreted VEGF protein level was reduced by 50% or less compared to the untreated control group was derived.

[1] = values marked * in the table, mixed hypoxic condition (1% oxygen + CoCl2) for 24 hours, read-out: IC50 HIF-1α, Hypoxia(24h)
[2] = ARPE-19 cells, pretreated 2 hours, 24 hours hypoxic conditions, secreted VEGF in medium supernatant by ELISA, concentration range reducing VEGF by 50% vs untreated control, read-out: IC50 VEGF
[3] = mixed hypoxic condition (1% oxygen + CoCl2) for 1 hour, read-out: IC50 HIF-1α Hypoxia (1 hour)

T1 sequence (Q16665 whole entry): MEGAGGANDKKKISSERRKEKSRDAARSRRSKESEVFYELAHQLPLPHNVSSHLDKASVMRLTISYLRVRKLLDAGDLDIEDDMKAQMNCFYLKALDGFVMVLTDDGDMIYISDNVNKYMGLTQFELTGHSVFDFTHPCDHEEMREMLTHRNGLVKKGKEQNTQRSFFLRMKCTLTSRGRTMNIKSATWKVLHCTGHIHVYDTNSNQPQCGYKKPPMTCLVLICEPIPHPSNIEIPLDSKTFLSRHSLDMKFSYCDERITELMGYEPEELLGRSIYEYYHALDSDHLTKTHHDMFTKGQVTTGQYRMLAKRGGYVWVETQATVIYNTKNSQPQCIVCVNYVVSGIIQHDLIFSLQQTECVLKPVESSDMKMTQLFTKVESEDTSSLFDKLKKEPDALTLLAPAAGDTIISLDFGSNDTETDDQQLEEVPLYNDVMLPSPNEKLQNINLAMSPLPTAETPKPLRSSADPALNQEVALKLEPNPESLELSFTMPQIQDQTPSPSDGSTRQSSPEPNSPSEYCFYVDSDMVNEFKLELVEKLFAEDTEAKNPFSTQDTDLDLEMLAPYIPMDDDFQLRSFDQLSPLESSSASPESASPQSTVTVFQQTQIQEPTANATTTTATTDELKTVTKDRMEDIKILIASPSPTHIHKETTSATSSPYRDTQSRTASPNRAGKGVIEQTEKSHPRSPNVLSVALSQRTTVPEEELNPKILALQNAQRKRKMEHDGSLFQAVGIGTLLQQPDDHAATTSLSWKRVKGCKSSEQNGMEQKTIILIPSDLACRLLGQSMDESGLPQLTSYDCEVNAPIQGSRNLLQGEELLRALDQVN

## O=C(NCc1cc(F)cc(-c2cnn(-c3ccc(F)cc3)c2)c1)c1ncnc2nc(C3CCC(F)(F)C3)[nH]c12 (single isomer, unassigned) [84(E1), 8-(3,3-Difluorocyclopentyl)-N-(3-fluoro-5-(1-(4-fluorophenyl)-1H-pyrazol-4-yl)benzyl)-7H-purine-6-carboxamide]
HIF-1α; [1]
  DC50: < 100 nM
VEGF; [2]
  IC50: < 100 nM

## O=C(Nc1cc(F)cc(-c2cnn(-c3ccc(F)cc3)c2)c1)c1ncnc2nc(C3CCCC3)[nH]c12 [Example 105, 8-Cyclopentyl-N-(3-fluoro-5-(1-(4-fluorophenyl)-1H-pyrazol-4-yl)phenyl)-7H-purine-6-carboxamide]
HIF-1α; [1]
  DC50: > 10000 nM
VEGF; [2]
  IC50: > 10000 nM

## O=C(NCc1cc(F)cc(-c2cnn(-c3cccnc3)c2)c1)c1ncnc2nc(C3CCC(F)(F)C3)[nH]c12 (centres unmarked) [Example 83, 8-(3,3-Difluorocyclopentyl)-N-(3-fluoro-5-(1-(pyridin-3-yl)-1H-pyrazol-4-yl)benzyl)-7H-purine-6-carboxamide]
HIF-1α; [1]
  DC50: < 100 nM
VEGF; ARPE-19 cells, pretreated 2 hours, 24 hours hypoxic conditions, ELISA, read-out: concentration at which the secreted VEGF protein level was suppressed to less than 50%
  IC50: < 100 nM
VEGF; [2]
  IC50: < 100 nM
VEGF; Experimental Example 2 (HIF-1α Western blot), read-out: concentration at which the expression level of VEGF was suppressed to less than 50%
  IC50: < 100 nM

## O=C(NCc1cc(F)cc(-c2cnn(-c3ccc(F)c(F)c3)c2)c1)c1ncnc2nc(C3CCCC3)[nH]c12 [Example 60, 8-Cyclopentyl-N-(3-(1-(3,4-difluorophenyl)-1H-pyrazol-4-yl)-5-fluorobenzyl)-7H-purine-6-carboxamide]
HIF-1α; [1]
  DC50: < 100 nM
VEGF; [2]
  IC50: 100 to 1000 nM

## CC1(C)CC(c2nc3ncnc(C(=O)NCc4cc(F)cc(-c5cnn(-c6ccc(F)cc6)c5)c4)c3[nH]2)C1 [Example 97, 8-(3,3-Dimethylcyclobutyl)-N-(3-fluoro-5-(1-(4-fluorophenyl)-1H-pyrazol-4-yl)benzyl)-7H-purine-6-carboxamide]
HIF-1α; [1]
  DC50: 100 to 1000 nM
VEGF; [2]
  IC50: 100 to 1000 nM

## O=C(NCc1cc(F)cc(-c2cnn(-c3ccc(Cl)cc3)c2)c1)c1ncnc2nc(C3CCCC3)[nH]c12 [Example 58, N-(3-(1-(4-chlorophenyl)-1H-pyrazol-4-yl)-5-fluorobenzyl)-8-cyclopentyl-7H-purine-6-carboxamide]
HIF-1α; [1]
  DC50: < 100 nM
VEGF; [2]
  IC50: 100 to 1000 nM

## Cn1cc(-c2cc(F)cc(CNC(=O)c3ncnc4nc(C5CC6CC6C5)[nH]c34)c2)cn1 (centres unmarked) [Example 78, 8-(Bicyclo[3.1.0]hexan-3-yl)-N-(3-fluoro-5-(1-methyl-1H-pyrazol-4-yl)benzyl)-7H-purine-6-carboxamide]
HIF-1α; [1]
  DC50: < 100 nM
VEGF; [2]
  IC50: 100 to 1000 nM

## O=C(NCc1cc(F)cc(-c2ccn(-c3ccc(F)cc3)c2)c1)c1ncnc2nc(C3CCCC3)[nH]c12 [Example 52, 8-Cyclopentyl-N-(3-fluoro-5-(1-(4-fluorophenyl)-1H-pyrrol-3-yl)benzyl)-7H-purine-6-carboxamide]
HIF-1α; [3]
  DC50: < 100 nM
VEGF; [2]
  IC50: 100 to 1000 nM

## Cn1cc(-n2cc(-c3cc(F)cc(CNC(=O)c4ncnc5nc(C6CCCC6)[nH]c45)c3)cn2)cn1 [Example 128, 8-Cyclopentyl-N-(3-fluoro-5-(1'-methyl-1'H-[1,4'-bipyrazol]-4-yl)benzyl)-7H-purine-6-carboxamide]
HIF-1α; [1]
  DC50: < 100 nM
VEGF; [2]
  IC50: < 100 nM

## CN(Cc1cc(F)cc(-c2cnn(-c3ccc(F)cc3)c2)c1)C(=O)c1ncnc2nc(C3CCCC3)[nH]c12 [Example 112, 8-Cyclopentyl-N-(3-fluoro-5-(1-(4-fluorophenyl)-1H-pyrazol-4-yl)benzyl)-N-methyl-7H-purine-6-carboxamide]
HIF-1α; [1]
  DC50: > 10000 nM
VEGF; [2]
  IC50: > 10000 nM

## O=C(NCc1cc(-c2cnn(-c3ccc(F)cc3)c2)ccc1F)c1ncnc2nc(C3CCCC3)[nH]c12 [Example 56, 8-Cyclopentyl-N-(2-fluoro-5-(1-(4-fluorophenyl)-1H-pyrazol-4-yl)benzyl)-7H-purine-6-carboxamide]
HIF-1α; [1]
  DC50: < 100 nM
VEGF; [2]
  IC50: 100 to 1000 nM

## O=C(NCc1cccc(F)c1)c1ncnc2nc(C3CCCC3)[nH]c12 [Example 13, 8-Cyclopentyl-N-(3-fluorobenzyl)-7H-purine-6-carboxamide]
HIF-1α; [3]
  DC50: < 100 nM
VEGF; [2]
  IC50: 100 to 1000 nM

## O=C(NCc1cc(F)cc(-c2cnsc2)c1)c1ncnc2nc(C3CCCC3)[nH]c12 [Example 38, 8-Cyclopentyl-N-(3-fluoro-5-(isothiazol-4-yl)benzyl)-7H-purine-6-carboxamide]
HIF-1α; [3]
  DC50: < 100 nM
VEGF; [2]
  IC50: 100 to 1000 nM

## CS(=O)(=O)c1cc(Br)ccc1-n1cc(-c2cc(F)cc(CNC(=O)c3ncnc4nc(C5CCCC5)[nH]c34)c2)cn1 [Example 59, N-(3-(1-(4-bromo-2-(methylsulfonyl)phenyl)-1H-pyrazol-4-yl)-5-fluorobenzyl)-8-cyclopentyl-7H-purine-6-carboxamide]
HIF-1α; [1]
  DC50: 100 to 1000 nM
VEGF; [2]
  IC50: 100 to 1000 nM

## O=C(NCc1cc(F)cc(-c2cnn(-c3ccc(F)cc3)c2)c1)c1ncnc2nc([C@H]3CCCO3)[nH]c12 [Example 85, (R)-N-(3-fluoro-5-(1-(4-fluorophenyl)-1H-pyrazol-4-yl)benzyl)-8-(tetrahydrofuran-2-yl)-7H-purine-6-carboxamide]
HIF-1α; [1]
  DC50: < 100 nM
VEGF; [2]
  IC50: 1000 to 10000 nM

## O=C(NCc1cc(F)cc(Nc2nnco2)c1)c1ncnc2nc(C3CCCC3)[nH]c12 [Example 134, N-(3-((1,3,4-oxadiazol-2-yl)amino)-5-fluorobenzyl)-8-cyclopentyl-7H-purine-6-carboxamide]
HIF-1α; [1]
  DC50: 100 to 1000 nM
VEGF; [2]
  IC50: > 10000 nM

## NC(=O)c1ccc(Nc2cc(F)cc(CNC(=O)c3ncnc4nc(C5CCCC5)[nH]c34)c2)cc1 [Example 126, N-(3-((4-carbamoylphenyl)amino)-5-fluorobenzyl)-8-cyclopentyl-7H-purine-6-carboxamide]
HIF-1α; [1]
  DC50: < 100 nM
VEGF; [2]
  IC50: < 100 nM

## O=C(NCc1cc(F)cc(-c2nnc(-c3ccc(F)cc3)o2)c1)c1ncnc2nc(C3CCCC3)[nH]c12 [Example 132, 8-Cyclopentyl-N-(3-fluoro-5-(5-(4-fluorophenyl)-1,3,4-oxadiazol-2-yl)benzyl)-7H-purine-6-carboxamide]
HIF-1α; [1]
  DC50: 1000 to 10000 nM
VEGF; [2]
  IC50: > 10000 nM

## COC(=O)C1CC(c2nc3ncnc(C(=O)NCc4cc(F)cc(-c5cnn(-c6ccc(F)cc6)c5)c4)c3[nH]2)C1 (single isomer, unassigned) [103(B), Methyl 3-(6-((3-fluoro-5-(1-(4-fluorophenyl)-1H-pyrazol-4-yl)benzyl)carbamoyl)-7H-purin-8-yl)cyclobutanecarboxylate]
HIF-1α; [1]
  DC50: > 10000 nM
VEGF; [2]
  IC50: > 10000 nM

## O=C(NCc1cc(F)cc(-c2cnn(-c3cncnc3)c2)c1)c1ncnc2nc(C3CCCC3)[nH]c12 [Example 32, 8-Cyclopentyl-N-(3-fluoro-5-(1-(pyrimidin-5-yl)-1H-pyrazol-4-yl)benzyl)-7H-purine-6-carboxamide]
HIF-1α; [3]
  DC50: < 100 nM
VEGF; [2]
  IC50: 100 to 1000 nM

## O=C(NCc1cc(F)cc(-c2cnn(-c3ccc(F)cc3)c2)c1)c1ncnc2nc(C3CC4CC4C3)[nH]c12 (centres unmarked) [Example 113, 8-(Bicyclo[3.1.0]hexan-3-yl)-N-(3-fluoro-5-(1-(4-fluorophenyl)-1H-pyrazol-4-yl)benzyl)-7H-purine-6-carboxamide]
HIF-1α; [1]
  DC50: < 100 nM
VEGF; [2]
  IC50: 100 to 1000 nM
